# Assay results as given in US8431597B2, “Benzimidazole derivatives” (Pfizer Inc., priority 2007, dated 2013).
# Counter-ions that a name gives are not always drawn.
# Target: T1, Smoothened (SMO) (Mus musculus, UniProt P56726)
# T1 construct: C3H10T1/2 cells (ATCC #CCL-226) were split and seeded; endogenous in cells; host or cells: C3H10T1/2 (ATCC #CCL-226)
# Assay: Smoothened (SMO)/Sonic Hedgehog (SHh) Transient Transcriptional Activation Assay (Gli-luciferase reporter in C3H10T1/2 cells)
# Format: cell-based, murine
# Settings: C3H 10T1/2, 2 μM compound; transfected C3H10T1/2 cells, recombinant human SHh 250 ng/mL, 20 hours, luciferase readout; read-out: SMO CELL % INHIBITION @ 2 μM
# Protocol: As noted above, the compounds of the invention are useful as inhibitors of SMO. • Methods for determining the in vitro activity of these compounds are described below: Smoothened (SMO)/Sonic Hedgehog (SHh) Transient Transcriptional Activation Assay
# On Day 1, 2×10^6 C3H10T1/2 cells (ATCC #CCL-226) were split and seeded in 12 mL of growth medium Basal Medium Eagle (BME, Invitrogen #21010-046) supplemented with 2 mM L-glutamine (Invitrogen #25030-081), 0.1 units/mL penicillin and 0.1 μg/mL streptomycin (Invitrogen #15140-122), and 10% Fetal Bovine Serum (FBS, Invitrogen #16140-071) in a T-75 flask (Costar #3376). They were allowed to attach for 4 hours at 37° C., 5% CO2. The cells were then transfected using Fugene 6 (Roch #11 814 443 001) in the following reaction: 48 μL Fugene 6 and 745 μL Opti-MEM (Invitrogen #31985-070) were mixed and allowed to sit at room temperature for 5 minutes. 8 μg of pGL4.14/mGli(CS) DNA (10× murine Gli response elements and minimal CS promoter) and 0.5 μg of pEGFP DNA (Clontech) were added, gently mixed and incubated at room temperature for 20 minutes. This entire transfection mix was then added to the T-75 flask containing the cells. The cells were incubated at 37° C., 5% CO2 for 18-24 hours.
# On Day 2, the transfected cells were trypsinized and seeded into white 96 well plates (Costar #3917) in 100 μL/well of growth medium at a concentration of 20,000 cells/well. The cells were allowed to recover for 4 hours before adding serum starvation medium Dulbecco's Modified Eagle Medium (DMEM, Invitrogen #21063-029) supplemented with 2 mM L-glutamine, 0.1 units/mL penicillin and 0.1 μg/mL streptomycin, and 0.5% Calf Serum (CS, Invitrogen #26170-043). The growth media was aspirated off, and the cells were rinsed with 100 μL of starvation media. 95 μL of starvation media was then added to each well. The cells were incubated for 20 hours at 37° C., 5% CO2.
# On Day 3, cells were dosed with test compounds at a final concentration ranging from 2 μM to 2 nM. Immediately after dosing cells with compounds, recombinant human sonic hedgehog (SHh, R&D Systems #1845-SH) was add to a final concentration of 250 ng/mL. A 25 μg vial of SHh was reconstituted with 250 μL PBS/0.1% BSA to give a 100 ng/μL working stock. This working stock was then diluted 1:20 in starvation media. The transfected cells were incubated with compounds and SHh for 20 hours at 37° C., 5% CO2.
# Luciferase assays were conducted on Day 4 using Dual-Glo Luciferase assay system (Promega #E2940) according to Promega's protocol. Briefly, Dual-Glo luciferase reagent was made up and 100 μL were added to each well of the 96 well plate containing media. Plates were shaken at room temperature for 10 minutes, and then read on TopCount (Perkin-Elmer). The luminescence was recorded.
# T1 sequence (P56726 33-793): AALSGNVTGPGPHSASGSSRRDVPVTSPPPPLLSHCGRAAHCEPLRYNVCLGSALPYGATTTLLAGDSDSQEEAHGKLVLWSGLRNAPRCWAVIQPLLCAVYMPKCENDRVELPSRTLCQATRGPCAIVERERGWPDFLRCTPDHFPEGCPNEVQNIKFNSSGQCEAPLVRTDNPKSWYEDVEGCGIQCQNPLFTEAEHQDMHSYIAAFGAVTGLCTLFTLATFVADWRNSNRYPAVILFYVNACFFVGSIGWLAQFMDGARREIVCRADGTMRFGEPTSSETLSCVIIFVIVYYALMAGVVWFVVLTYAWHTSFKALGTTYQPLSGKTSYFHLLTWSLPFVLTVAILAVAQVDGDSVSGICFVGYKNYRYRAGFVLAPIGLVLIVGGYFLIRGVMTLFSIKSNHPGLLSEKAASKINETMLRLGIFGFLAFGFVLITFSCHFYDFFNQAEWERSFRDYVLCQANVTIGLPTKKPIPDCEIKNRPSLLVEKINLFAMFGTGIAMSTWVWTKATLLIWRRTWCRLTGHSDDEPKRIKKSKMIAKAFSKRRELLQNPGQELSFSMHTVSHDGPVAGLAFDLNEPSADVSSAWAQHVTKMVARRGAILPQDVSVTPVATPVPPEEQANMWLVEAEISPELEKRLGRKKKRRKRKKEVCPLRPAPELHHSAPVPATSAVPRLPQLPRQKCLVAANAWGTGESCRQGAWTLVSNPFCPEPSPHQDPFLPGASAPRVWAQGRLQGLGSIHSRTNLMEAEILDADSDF
row,inhibition at 2 µM [%],SMILES
1,109,"CN1CC[C@@H](NC(=O)Nc2ccc(C#N)cc2)C[C@@H]1c1nc2cc(C#N)ccc2[nH]1 [Example 19, 1-[(2R,4R)-2-(5-cyano-1H-benzimidazol-2-yl)-1-methylpiperidin-4-yl]-3-(4-cyanophenyl)urea hydrochloride]"
2,78.7,"CN1CC[C@@H](NC(=O)N2CCOCC2)C[C@@H]1c1nc2ccccc2[nH]1 [Example 95, N-[(2R,4R)-2-(1H-benzimidazol-2-yl)-1-methylpiperidin-4-yl]morpholine-4-carboxamide hydrochloride]"
3,88.2,"O=C(N[C@@H]1CCN(CC2CC2)[C@@H](c2nc3ccccc3[nH]2)C1)c1ccc2c(c1)OCCO2 [Example 89, N-[(2R,4R)-2-(1H-benzimidazol-2-yl)-1-(cyclopropyl-methyl)piperidin-4-yl]-2,3-dihydro-1,4-benzodioxine-6-carboxamide hydrochloride]"
4,103,"Cc1ccc2[nH]c([C@H]3C[C@H](NC(=O)Nc4ccc(C(F)(F)F)nc4)CCN3C)nc2c1 [Example 65, 1-[(2R,4R)-1-methyl-2-(5-methyl-1H-benzimidazol-2-yl)piperidin-4-yl]-3-[6-(trifluoromethyl)pyridin-3-yl]urea hydrochloride]"
5,75.4,"CN1CC[C@@H](NC(=O)c2cnc3c(c2)OCCO3)C[C@@H]1c1nc2ccccc2[nH]1 [Example 97, N-[(2R,4R)-2-(1H-benzimidazol-2-yl)-1-methylpiperidin-4-yl]-2,3-dihydro[1,4]dioxino[2,3-b]pyridine-7-carboxamide hydrochloride]"
6,104,"COc1ccc2[nH]c([C@H]3C[C@H](NC(=O)Nc4ccc(C)nc4)CCN3C)nc2c1 [Example 129, 1-[(2R,4R)-2-(5-methoxy-1H-benzimidazol-2-yl)-1-methylpiperidin-4-yl]-3-(6-methylpyridin-3-yl)urea hydrochloride]"
7,81.8,"CN1C[C@H](NC(=O)Nc2ccc(Cl)c(C(F)(F)F)c2)C[C@H]1c1nc2ccc(F)cc2[nH]1 [Example 14, 1-[4-chloro-3-(trifluoromethyl)phenyl]-3-[(3R,5S)-5-(6-fluoro-1H-benzimidazol-2-yl)-1-methylpyrrolidin-3-yl]urea]"
8,108,"Cc1ccc(NC(=O)N[C@@H]2CCN(C)[C@@H](c3nc4ccc(F)cc4[nH]3)C2)cn1 [Example 132, 1-[(2R,4R)-2-(6-fluoro-1H-benzimidazol-2-yl)-1-methylpiperidin-4-yl]-3-(6-methylpyridin-3-yl)urea hydrochloride]"
9,86.4,"CN1CC[C@@H](NC(=O)c2ccc(-c3cnco3)cc2)C[C@@H]1c1nc2ccccc2[nH]1 [Example 92, N-[(2R,4R)-2-(1H-benzimidazol-2-yl)-1-methylpiperidin-4-yl]-4-(1,3-oxazol-5-yl)benzamide hydrochloride]"
10,100,"Cc1ccc2nccc(C(=O)N[C@@H]3CCN(C)[C@@H](c4nc5ccccc5[nH]4)C3)c2c1 [Example 103, N-[(2R,4R)-2-(1H-benzimidazol-2-yl)-1-methylpiperidin-4-yl]-6-methylquinoline-4-carboxamide trifluoroacetate]"
11,104,"CN1CC[C@@H](NC(=O)c2ccc3c(c2)OCCO3)C[C@@H]1c1nc2cc(F)c(F)cc2[nH]1 [Example 57, N-[(2R,4R)-2-(5,6-difluoro-1H-benzimidazol-2-yl)-1-methylpiperidin-4-yl]-2,3-dihydro-1,4-benzodioxine-6-carboxamide hydrochloride]"
12,99.2,"CN1CC[C@@H](NC(=O)c2ccc3c(c2)OCCO3)C[C@@H]1c1nc2ccc(C(F)(F)F)cc2[nH]1 [Example 79, N-{(2R,4R)-1-methyl-2-[6-(trifluoromethyl)-1H-benzimidazol-2-yl]piperidin-4-yl}-2,3-dihydro-1,4-benzodioxine-6-carboxamide hydrochloride]"
13,106,"COc1ccc(NC(=O)N[C@@H]2CCN(C)[C@@H](c3nc4ccccc4[nH]3)C2)cc1 [Example 37, 1-[(2R,4R)-2-(1H-benzimidazol-2-yl)-1-methylpiperidin-4-yl]-3-(4-methoxyphenyl)urea hydrochloride]"
14,94.5,"CN1CC[C@@H](NC(=O)Cn2nc3ccccc3n2)C[C@@H]1c1nc2ccccc2[nH]1 [Example 106, N-[(2R,4R)-2-(1H-benzimidazol-2-yl)-1-methylpiperidin-4-yl]-2-(2H-1,2,3-benzotriazol-2-yl)acetamide trifluoroacetate]"
15,105,"CN1CC[C@@H](NC(=O)c2ccc3c(c2)OCCO3)C[C@@H]1c1nc2ccc(F)cc2[nH]1 [Example 45, N-[(2R,4R)-2-(6-fluoro-1H-benzimidazol-2-yl)-1-methylpiperidin-4-yl]-2,3-dihydro-1,4-benzodioxine-6-carboxamide hydrochloride]"
16,105,"Cc1cc2nc([C@H]3C[C@H](NC(=O)Nc4ccc(C#N)cc4)CCN3C)[nH]c2cc1C [Example 52, 1-(4-cyanophenyl)-3-[(2R,4R)-2-(5,6-dimethyl-1H-benzimidazol-2-yl)-1-methylpiperidin-4-yl]urea hydrochloride]"
17,72,"O=C(N[C@@H]1CCN[C@@H](c2nc3ccccc3[nH]2)C1)c1ccc2c(c1)OCCO2 [Example 99, N-[(2R,4R)-2-(1H-benzimidazol-2-yl)piperidin-4-yl]-2,3-dihydro-1,4-benzodioxine-6-carboxamide trifluoroacetate]"
18,76.1,"CN1CC[C@@H](NC(=O)c2cc3ccccc3n2C)C[C@@H]1c1nc2ccccc2[nH]1 [Example 113, N-[(2R,4R)-2-(1H-benzimidazol-2-yl)-1-methylpiperidin-4-yl]-1-methyl-1H-indole-2-carboxamide trifluoroacetate]"
19,88.3,"CSc1ccccc1C(=O)N[C@@H]1CCN(C)[C@@H](c2nc3ccccc3[nH]2)C1 [Example 107, N-[(2R,4R)-2-(1H-benzimidazol-2-yl)-1-methylpiperidin-4-yl]-2-(methylthio)benzamide trifluoroacetate]"
20,104,"CN1CC[C@@H](NC(=O)c2ccc3c(c2)OCCO3)C[C@@H]1c1nc2ccc(C#N)cc2[nH]1 [Example 63, N-[(2R,4R)-2-(6-cyano-1H-benzimidazol-2-yl)-1-methylpiperidin-4-yl]-2,3-dihydro-1,4-benzodioxine-6-carboxamide hydrochloride]"
21,85.2,"CC(C)N1C[C@@H](NC(=O)Nc2ccc(Cl)c(C(F)(F)F)c2)C[C@H]1c1nc2ccccc2[nH]1 [Example 93, 1-[(3S,5S)-5-(1H-benzimidazol-2-yl)-1-isopropyl-pyrrolidin-3-yl]-3-[4-chloro-3-(trifluoromethyl)phenyl]urea]"
22,102,"CN1CC[C@@H](NC(=O)c2ccc(C(=O)C(F)(F)F)cc2)C[C@@H]1c1nc2ccccc2[nH]1 [Example 68, N-[(2R,4R)-2-(1H-benzimidazol-2-yl)-1-methylpiperidin-4-yl]-4-(trifluoroacetyl)benzamide]"
23,105,"CN1CC[C@@H](NC(=O)Nc2ccc(C(F)(F)F)nc2)C[C@@H]1c1nc2cc(C#N)ccc2[nH]1 [Example 55, 1-[(2R,4R)-2-(5-cyano-1H-benzimidazol-2-yl)-1-methylpiperidin-4-yl]-3-[6-(trifluoromethyl)pyridin-3-yl]urea hydrochloride]"

row,SMILES,inhibition at 2 µM [%]
1,"CN1CC[C@@H](NC(=O)c2ccc3c(c2)OCCO3)C[C@@H]1c1nc2ccccc2[nH]1 [Example 86, N-[(2R,4R)-2-(1H-benzimidazol-2-yl)-1-methylpiperidin-4-yl]-2,3-dihydro-1,4-benzodioxine-6-carboxamide hydrochloride]",93.1
2,"CN1CC[C@@H](NC(=O)Nc2ccc(OC(F)(F)F)cc2)C[C@@H]1c1nc2ccccc2[nH]1 [Example 15, 1-[(2R,4R)-2-(1H-benzimidazol-2-yl)-1-methylpiperidin-4-yl]-3-[4-(trifluoromethoxy)phenyl]urea hydrochloride]",111
